{"source": "ChEMBL document CHEMBL5579851", "about": "“Synthesis and antifungal evaluation of novel triazole derivatives bearing a pyrazole-methoxyl moiety” (Eur J Med Chem, 2024)", "key": {"Pichia kudriavzevii": {"test_system": "Pichia kudriavzevii", "assay": "Antifungal activity against Candida krusei 4996 assessed as inhibition of fungal growth incubated for 48 hrs by CLSI based broth microdilution assay", "type": "functional"}, "Candida albicans [1]": {"test_system": "Candida albicans", "assay": "Antifungal activity against Candida albicans 10231 assessed as inhibition of fungal growth incubated for 48 hrs by CLSI based broth microdilution assay", "type": "functional"}, "Saccharomyces cerevisiae [2]": {"test_system": "Saccharomyces cerevisiae", "assay": "Antifungal activity against recombinant Saccharomyces cerevisiae Y2300 overexpressing ScErg11 assessed as inhibition of fungal growth incubated for 48 hrs by CLSI based broth microdilution assay", "type": "functional"}, "Candida albicans [3]": {"test_system": "Candida albicans", "assay": "Antibiofilm activity against Candida albicans SC5314 assessed as increase in matured biofilm distruption at 64 ug/ml incubated for 24 hrs by XTT assay relative to control", "type": "functional", "details": "dose 64 µg/ml"}, "Candida albicans [4]": {"test_system": "Candida albicans", "assay": "Antifungal activity against Candida albicans SC5314 assessed as inhibition of fungal growth at 0.125 ug/ml after 48 hrs by TECAN plate reader analysis relative to control", "type": "functional"}, "Cryptococcus neoformans": {"test_system": "Cryptococcus neoformans", "assay": "Antifungal activity against Cryptococcus neoformans 32609 assessed as inhibition of fungal growth incubated for 72 hrs by CLSI based broth microdilution assay", "type": "functional"}, "Saccharomyces cerevisiae [5]": {"test_system": "Saccharomyces cerevisiae", "assay": "Antifungal activity against recombinant Saccharomyces cerevisiae Y2462 overexpressing ScErg11/ScNcp1 assessed as inhibition of fungal growth incubated for 48 hrs by CLSI based broth microdilution assay", "type": "functional"}, "Candida albicans [6]": {"test_system": "Candida albicans", "assay": "Antifungal activity against Candida albicans SC5314 assessed as inhibition of hyphae length after 3 hrs by inverted microscopic analysis", "type": "functional, organism-based", "details": "dose 0.0625-1 µg/ml"}, "Candida albicans [7]": {"test_system": "Candida albicans", "assay": "Antifungal activity against Candida albicans SC5314 assessed as inhibition of hyphae formation at 0.625 ug/ml after 3 hrs by inverted microscopic analysis relative to control", "type": "functional"}, "Candida albicans [8]": {"test_system": "Candida albicans", "assay": "Antibiofilm activity against Candida albicans SC5314 assessed as inhibition of biofilm formation at 64 ug/mL incubated for 24 hrs by XTT assay relative to control", "type": "functional"}, "Candida albicans [9]": {"test_system": "Candida albicans", "assay": "Antibiofilm activity against Candida albicans SC5314 assessed as increase in matured biofilm distruption incubated for 24 hrs by XTT assay", "type": "functional, organism-based", "details": "dose 0.25-64 µg/ml"}, "Saccharomyces cerevisiae [10]": {"test_system": "Saccharomyces cerevisiae", "assay": "Antifungal activity against recombinant Saccharomyces cerevisiae Y2767 overexpressing CauErg11 assessed as inhibition of fungal growth incubated for 48 hrs by CLSI based broth microdilution assay", "type": "functional"}, "Saccharomyces cerevisiae [11]": {"test_system": "Saccharomyces cerevisiae", "assay": "Selectivity index, ratio of MIC for antifungal activity against recombinant Saccharomyces cerevisiae Y525 overexpressing CaMdr1 to MIC for antifungal activity against recombinant Saccharomyces cerevisiae Y2411 overexpressing ScErg11", "type": "functional"}}}
{"smiles": "C[C@@H](OCc1ccn(Cc2ccc(Cl)cc2)n1)[C@](O)(Cn1cncn1)c1ccc(F)cc1F", "values": [{"measurement": "MIC", "setting": "Pichia kudriavzevii", "result": 2, "unit": "µg/mL"}, {"measurement": "MIC", "setting": "Candida albicans [1]", "result": "≤ 0.125", "unit": "µg/mL"}, {"measurement": "MIC", "setting": "Saccharomyces cerevisiae [2]", "result": 0.0313, "unit": "µg/mL"}, {"measurement": "Activity", "setting": "Candida albicans [3]", "result": 57.3, "unit": "%"}, {"measurement": "inhibition at 0.125 µg/mL", "setting": "Candida albicans [4]", "result": 100, "unit": "%"}, {"measurement": "MIC", "setting": "Cryptococcus neoformans", "result": "≤ 0.125", "unit": "µg/mL"}, {"measurement": "MIC", "setting": "Saccharomyces cerevisiae [5]", "result": 0.0313, "unit": "µg/mL"}, {"measurement": "inhibition", "setting": "Candida albicans [6]", "result": "Dose-Dependent Effect"}, {"measurement": "inhibition at 0.625 µg/mL", "setting": "Candida albicans [7]", "result": 100, "unit": "%"}, {"measurement": "inhibition at 64 µg/mL", "setting": "Candida albicans [8]", "result": "> 55", "unit": "%"}, {"measurement": "Activity", "setting": "Candida albicans [9]", "result": "Dose-Dependent Effect"}, {"measurement": "MIC", "setting": "Saccharomyces cerevisiae [10]", "result": 0.008, "unit": "µg/mL"}, {"measurement": "Ratio", "setting": "Saccharomyces cerevisiae [11]", "result": 16}]}
